Laboratory results: US20240251792A1, “WEED CONTROL METHOD” (SYNGENTA CROP PROTECTION AG, priority 2021, published 2024)
Where two headings read alike, the source gives them in different places.

What was measured:
Format in all cases: in vivo
weeds and/or crops = assay: Post-emergence biological efficacy (Table 4); conditions: 1000 g/ha, evaluated after 13 days; for pest or weed control at 1000 g/ha: 312 h
Description: (§1) Seeds of weeds and/or crops were sown in standard soil in pots. After cultivation for 14 days under controlled conditions in a glasshouse (at 24/19° C., day/night; 16 hours light), the plants were sprayed with an aqueous spray solution derived from the formulation of the technical active ingredient in a small amount of acetone and a special solvent and emulsifier mixture referred to as F50 (11.12% Emulsogen EL360 TM+44.44% N-methylpyrrolidone+44.44% Dowanol DPM glycol ether), to create a 50 g/l solution which was then diluted using 0.2% Genapol X080 as diluent to give the desired final dose of test compound.
(§2) The test plants were then grown under controlled conditions in the glasshouse (at 24/18° C., day/night; 15 hours light; 50% humidity) and watered twice daily. After 13 days the test was evaluated (100=total damage to plant; 0=no damage to plant).

ECHCG = assay: Pre-emergence biological efficacy (Table 3); conditions: 1000 g/ha, after 13 days; for pest or weed control at 1000 g/ha: Echinochloa crus-galli, 312 h, read-out: evaluation (100=total damage to plant; 0=no damage to plant)
Description: as §1, with “one day” for “14 days”, “AMA” for “F50”
as §2

ZEAMX = assay: Pre-emergence biological efficacy (Table 3); conditions: 1000 g/ha, after 13 days; for plant injury at 1000 g/ha: 312 h, read-out: evaluation (100=total damage to plant; 0=no damage to plant)
Description: as §1, with “one day” for “14 days”, “AMA” for “F50”
as §2

IPOHE = assay: Pre-emergence biological efficacy (Table 3); conditions: 1000 g/ha, after 13 days; for pest or weed control at 1000 g/ha: Ipomoea hederacea, 312 h, read-out: evaluation (100=total damage to plant; 0=no damage to plant)
Description: as §1, with “one day” for “14 days”, “AMA” for “F50”
as §2

AMARE = assay: Pre-emergence biological efficacy (Table 3); conditions: 1000 g/ha, after 13 days; for pest or weed control at 1000 g/ha: Amaranthus retroflexus, 312 h, read-out: evaluation (100=total damage to plant; 0=no damage to plant)
Description: as §1, with “one day” for “14 days”, “AMA” for “F50”
as §2

STEME = assay: Pre-emergence biological efficacy (Table 3); conditions: after 13 days; for pest or weed control at 1000 g/ha: 312 h, read-out: evaluation (100=total damage to plant; 0=no damage to plant); for evaluation (100=total damage to plant; 0=no damage to plant): 1000 g/ha
Description: as §1, with “one day” for “14 days”, “AMA” for “F50”
as §2

ABUTH = assay: Pre-emergence biological efficacy (Table 3); conditions: after 13 days; for pest or weed control at 1000 g/ha: Abutilon theophrasti, 312 h, read-out: evaluation (100=total damage to plant; 0=no damage to plant); for evaluation (100=total damage to plant; 0=no damage to plant): 1000 g/ha
Description: as §1, with “one day” for “14 days”, “AMA” for “F50”
as §2

[1] = STEME, read-out: damage to plant STEME (100=total damage; 0=no damage)
[2] = ZEAMX, read-out: damage to plant ZEAMX (100=total damage; 0=no damage)
[3] = Abutilon theophrasti, ABUTH, read-out: damage to plant ABUTH (100=total damage; 0=no damage)
[4] = Amaranthus retroflexus, AMARE, read-out: damage to plant AMARE (100=total damage; 0=no damage)
[5] = Echinochloa crus-galli, ECHCG, read-out: damage to plant ECHCG (100=total damage; 0=no damage)
[6] = Ipomoea hederacea, IPOHE, read-out: damage to plant IPOHE (100=total damage; 0=no damage)

Row | SMILES | pest or weed control at 1000 g/ha (weeds and/or crops; [1]) [%] | pest or weed control at 1000 g/ha (weeds and/or crops; [2]) [%] | pest or weed control at 1000 g/ha (weeds and/or crops; [3]) [%] | pest or weed control at 1000 g/ha (weeds and/or crops; [4]) [%] | pest or weed control at 1000 g/ha (weeds and/or crops; [5]) [%] | pest or weed control at 1000 g/ha (weeds and/or crops; [6]) [%] | pest or weed control at 1000 g/ha (ECHCG) [%] | plant injury at 1000 g/ha (ZEAMX) [%] | pest or weed control at 1000 g/ha (IPOHE) [%] | pest or weed control at 1000 g/ha (AMARE) [%] | pest or weed control at 1000 g/ha (STEME) [%] | pest or weed control at 1000 g/ha (ABUTH) [%] | other results
1 | O=C(O)C(F)(F)c1cc(Cl)cc([N+](=O)[O-])c1Cl [Compound 1-238, 2-(2,5-Dichloro-3-nitrophenyl)-2,2-difluoroaceticacid] | 40 | 0 | 0 | 30 | 0 | 0 | 0 | 0 | 0 | 0 | 0 | 0 | 
2 | Nc1c(Cl)cc(Cl)c(Cl)c1C(F)(F)C(=O)O [Compound 1-81, 2-(2-Amino-3,5,6-trichloro-phenyl)-2,2-difluoro-acetic acid] | 50 | 0 | 20 | 50 | 10 | 50 | 0 | 0 | 10 | 30 | 20 | 20 | 
3 | O=C(O)C(F)(F)c1cccc2c1OC(F)(F)O2 [Compound 1-385, 2-(2,2-Difluoro-1,3-benzodioxol-4-yl)-2,2-difluoro-acetic acid] | 100 | 40 | 90 | 90 | 50 | 70 | 50 | 50 | 70 | 60 | 50 | 90 | 
4 | N.Nc1ccc(C(F)(F)C(=O)O)c(Cl)c1Cl [Compound 7-75, Ammonium;2-(4-amino-2,3-dichloro-phenyl)-2,2-difluoro-acetate] |  |  |  |  |  |  |  |  |  |  |  |  | damage to plant AMARE (100=total damage; 0=no damage) (weeds and/or crops; AMARE): 70; damage to plant ECHCG (100=total damage; 0=no damage) (weeds and/or crops; ECHCG): 60; damage to plant IPOHE (100=total damage; 0=no damage) (weeds and/or crops; IPOHE): 20; damage to plant STEME (100=total damage; 0=no damage) (weeds and/or crops; STEME): 90; damage to plant ZEAMX (100=total damage; 0=no damage) (weeds and/or crops; ZEAMX): 10; evaluation (100=total damage to plant; 0=no damage to plant) (ECHCG): 30; evaluation (100=total damage to plant; 0=no damage to plant) (ZEAMX): 0; evaluation (100=total damage to plant; 0=no damage to plant) (IPOHE): 20; evaluation (100=total damage to plant; 0=no damage to plant) (AMARE): 70; evaluation (100=total damage to plant; 0=no damage to plant) (STEME): 70; evaluation (100=total damage to plant; 0=no damage to plant) (ABUTH): 70
5 | O=C(O)C(F)(F)c1cccc(Cl)c1[N+](=O)[O-] [Compound 7-250, Ammonium 2-(3-chloro-2-nitro-phenyl)-2,2-difluoro-acetate] | 100 | 20 | 90 | 100 | 30 | 80 | 30 | 50 | 90 | 100 | 100 | 90 | 
6 | Nc1ccc(Cl)c(Cl)c1C(F)(F)C(=O)[O-].[Li+] [Compound 5-80, Lithium;2-(6-amino-2,3-dichloro-phenyl)-2,2-difluoro-acetate] |  |  |  |  |  |  |  |  |  |  |  |  | damage to plant AMARE (100=total damage; 0=no damage) (weeds and/or crops; AMARE): 20; damage to plant ECHCG (100=total damage; 0=no damage) (weeds and/or crops; ECHCG): 0; damage to plant IPOHE (100=total damage; 0=no damage) (weeds and/or crops; IPOHE): 10; damage to plant STEME (100=total damage; 0=no damage) (weeds and/or crops; STEME): 10; damage to plant ZEAMX (100=total damage; 0=no damage) (weeds and/or crops; ZEAMX): 10; evaluation (100=total damage to plant; 0=no damage to plant) (ECHCG): 0; evaluation (100=total damage to plant; 0=no damage to plant) (ZEAMX): 0; evaluation (100=total damage to plant; 0=no damage to plant) (IPOHE): 0; evaluation (100=total damage to plant; 0=no damage to plant) (AMARE): 0; evaluation (100=total damage to plant; 0=no damage to plant) (STEME): 0; evaluation (100=total damage to plant; 0=no damage to plant) (ABUTH): 0
7 | Nc1ccc(Cl)c(C(F)(F)C(=O)O)c1 [Compound 1-63, 2-(5-Amino-2-chloro-phenyl)-2,2-difluoro-acetic acid] | 0 | 0 | 10 | 20 | 10 | 20 | 0 | 0 | 0 | 0 | 0 | 0 | 
8 | COc1c(F)cccc1C(F)(F)C(=O)O [Compound 1-306, 2,2-Difluoro-2-(3-fluoro-2-methoxy-phenyl)acetic acid] | 0 | 10 |  | 70 | 0 | 60 | 10 | 0 | 60 | 30 | 10 | 20 | 
9 | COc1c(F)ccc(F)c1C(F)(F)C(=O)O [Compound 1-314, 2-(3,6-Difluoro-2-methoxyphenyl)-2,2-difluoroacetic acid] | 0 | 10 | 0 | 60 | 0 | 10 | 0 | 0 | 0 | 0 | 0 | 0 | 
10 | O=C(O)C(F)(F)c1cccc2cccc(Cl)c12 [Compound 1-416, 2-(8-chloro-1-naphthyl)-2,2-difluoro-acetic acid] | 90 | 20 |  | 80 | 10 | 80 | 40 | 10 | 90 | 90 | 80 | 80 | 
11 | Nc1c(Cl)ccc(Cl)c1C(F)(F)C(=O)O [Compound 7-254, 2-(2-amino-3,6-dichlorophenyl)-2,2-difluoroacetic acid] | 60 | 20 | 30 | 50 | 0 | 30 | 0 | 10 | 10 | 20 | 30 | 40 | 
12 | Cc1noc2ccc(Cl)c(C(F)(F)C(=O)O)c12 [Compound 1-395, 2-(5-Chloro-3-methyl-1,2-benzoxazol-4-yl)-2,2-difluoro-acetic acid] | 20 | 0 | 20 | 40 | 10 | 70 | 20 | 0 | 50 | 30 | 10 | 10 | 
